Reference: US20090325959A1 (priority 2008, published 2009)
Read-outs that look alike come from different tables or passages of the source. Each block holds one compound with its values, some of them ahead of it.

Legend:
[1] = test system: ova-sensitized, ova-challenged mice; test: Prevention of airway hyperreactivity (Penh, methacholine) in mouse ovalbumin sensitization model; format: in vivo; conditions: for log10AUC (Penh): days 27 to 31
Method: The anti-inflammatory dosing paradigm consists of dosing the animals once a day starting on day 27 and finishing on either day 30 or 31 (1 hr prior to the aerosolized ovalbumin challenges on days 28 to 30) but not on day 32 when hyperreactivity evaluation occurs. […] Exposure to the methacholine doses consisted of a 3 minute period during which a nebulizer was aerosolizing the methacholine and an additional 3 minute period following the cessation of nebulization. […] Enhanced pause (Penh), a unitless index of airway hyperreactivity, is derived from the expiratory side of the respiratory waveform measured via the plethysmograph and is used as an indirect measure of airway resistance and hyperreactivity. […] Following the methacholine dose response, BALF was collected and all animals were anesthetized, bled and euthanized. […] The Penh value at each of the dose levels of methacholine represents the 6-minute average response. Change from baseline (CFB) in Penh was calculated at each methacholine dose and the area under the curve (AUC) for these CFB values was calculated using the trapezoidal rule. This same approach was applied for each mouse across multiple experiments. […] Data from equal experimental conditions across experiments performed on different days were pooled for statistical analysis and data reporting. […] A random intercept for each experiment was assumed to account for possible similarities of the results obtained from a given experiment (i.e., as a “blocking effect”). […] For FIG. 9, linear AUC values from compound treated mice were reported as a percent of linear AUC values from vehicle-treated ovalbumin-sensitized/ovalbumin-challenged (asthmatic) mice.

human neutrophils = test: Human neutrophil chemotaxis induced by fMLP (modified Boyden chamber); format: cell-based; conditions: Neutrophil, 1 h, 1 μM fMLP challenge, one hour, read-out: Chemotaxis Avg. IC50
Source text: This assay is an in vitro assay of neutrophil chemotaxis that can be used to evaluate the ability of Rho Kinase inhibitor compounds of Formula I or II to inhibit the migration of human neutrophils, an inflammatory cell that has been implicated in the pathophysiology of allergic conjunctivitis.
Peripheral blood from healthy human volunteers was collected and the neutrophils were isolated by Ficoll-paque density centrifugation followed by dextran sedimentation and hypotonic lysis of the red blood cells. Neutrophil chemotaxis was assessed using a modified Boyden Chamber (Neuroprobe, 96-well) with a 3 μm pore polycarbonate membrane. The ability of the tested compounds to block chemotaxis induced by a 1 μM fMLP challenge during a one hour incubation at 37° C. with 5% CO2 was assessed in a dose response manner.

ROCK1 = target: T1, ROCK1 (Homo sapiens, UniProt Q13464); test: Rho kinase inhibition assay (IMAP fluorescence polarization), ROCK1; format: biochemical;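 note: kinase reaction run 60 min at room temperature, then phosphorylated substrate captured on IMAP beads for 30 min, with fluorescence polarization read in mP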
T1 construct: purchased Upstate/Chemicon 14-601
T1 sequence (Q13464 17-535 limits assumed): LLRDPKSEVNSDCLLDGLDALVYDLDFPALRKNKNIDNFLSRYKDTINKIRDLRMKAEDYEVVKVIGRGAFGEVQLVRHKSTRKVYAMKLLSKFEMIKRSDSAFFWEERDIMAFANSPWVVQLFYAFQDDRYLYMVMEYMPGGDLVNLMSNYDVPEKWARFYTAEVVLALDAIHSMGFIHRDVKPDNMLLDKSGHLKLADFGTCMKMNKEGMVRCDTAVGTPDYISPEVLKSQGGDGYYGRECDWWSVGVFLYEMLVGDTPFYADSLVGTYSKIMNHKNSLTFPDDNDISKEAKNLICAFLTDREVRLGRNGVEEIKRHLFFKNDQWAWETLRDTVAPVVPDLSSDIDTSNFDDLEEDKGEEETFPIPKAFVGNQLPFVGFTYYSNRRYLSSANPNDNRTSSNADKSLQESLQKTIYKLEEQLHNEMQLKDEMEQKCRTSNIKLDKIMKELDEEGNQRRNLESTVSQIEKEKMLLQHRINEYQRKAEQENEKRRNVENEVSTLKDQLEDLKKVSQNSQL
Method: (§2) Following the pre-incubation, 10 μM ATP was added to initiate the reaction. After 60 minutes at room temperature, Molecular Devices IMAP™ binding solution was added to bind phosphorylated substrate. After 30 minutes of incubation in the presence of the IMAP™ beads, the fluorescence polarization was read and the ratio was reported as mP. IC50 values for compounds and EC50 values for ATP were calculated using the Prism software from Graphpad.

ROCK2 = target: T2, ROCK2 (Homo sapiens, UniProt O75116); test: Rho kinase inhibition assay (IMAP fluorescence polarization), ROCK2; format: biochemical;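 note: kinase reaction started with 10 µM ATP and run 60 min at room temperature, then phosphorylated substrate captured on IMAP beads for 30 min and fluorescence polarization read in mP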
T2 construct: purchased Upstate/Chemicon 14-451
T2 sequence (O75116 11-552 limits assumed): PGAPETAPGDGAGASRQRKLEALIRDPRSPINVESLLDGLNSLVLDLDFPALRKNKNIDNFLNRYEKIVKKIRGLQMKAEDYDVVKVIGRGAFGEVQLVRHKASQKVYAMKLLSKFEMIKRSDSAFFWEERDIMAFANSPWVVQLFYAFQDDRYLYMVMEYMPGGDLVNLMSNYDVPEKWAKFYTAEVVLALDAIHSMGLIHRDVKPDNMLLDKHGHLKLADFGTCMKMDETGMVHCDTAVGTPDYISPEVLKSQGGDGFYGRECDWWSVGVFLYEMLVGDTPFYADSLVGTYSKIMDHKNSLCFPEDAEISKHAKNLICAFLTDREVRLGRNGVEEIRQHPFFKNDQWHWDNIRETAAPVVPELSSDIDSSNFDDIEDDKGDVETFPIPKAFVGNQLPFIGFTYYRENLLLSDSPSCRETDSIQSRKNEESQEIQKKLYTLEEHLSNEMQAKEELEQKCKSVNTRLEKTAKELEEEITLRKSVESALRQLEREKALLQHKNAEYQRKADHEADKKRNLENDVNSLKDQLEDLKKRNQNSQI
Method: as §2

NIH/3T3 cells = test: NIH/3T3 cell morphology assay (actin cytoskeleton disruption); format: cell-based; conditions: score 0 (no effect) to 4 (complete disruption) of the actin cytoskeleton; 60 minutes
Method: NIH/3T3 cells were grown in DMEM-H containing glutamine and 10% Colorado Calf Serum. Cells were passaged regularly prior to reaching confluence. Eighteen to 24 hours prior to experimentation, the cells were plated onto Poly-L-Lysine-coated glass bottom 24-well plates. On the day of experimentation, the cell culture medium was removed and was replaced with the same medium containing from 10 nM to 25 μM of the test compound, and the cells were incubated for 60 minutes at 37° C. The culture medium was then removed and the cells were washed with warmed PBS and fixed for 10 minutes with warmed 4% paraformaldehyde. The cells were permeabilized with 0.5% Triton-X, stained with TRITC-conjugated phalloidin and imaged using a Nikon Eclipse E600 epifluorescent microscope to determine the degree of actin disruption. Results were expressed as a numerical score indicating the observed degree of disruption of the actin cytoskeleton at the test concentration, ranging from 0 (no effect) to 4 (complete disruption), and were the average of at least 2 determinations.

p70S6K human enzyme = target: T3, p70S6K human enzyme (Homo sapiens, UniProt P23443, T412E); test: p70S6K inhibition assay (IMAP FP); format: biochemical;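 note: kinase reaction run at room temperature, phosphorylated substrate captured on IMAP beads and read as fluorescence polarization in mP, IC50 then converted to Ki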
T3 construct: purchased Upstate Chemicon 14-486
T3 sequence (P23443 1-421 T412E limits assumed): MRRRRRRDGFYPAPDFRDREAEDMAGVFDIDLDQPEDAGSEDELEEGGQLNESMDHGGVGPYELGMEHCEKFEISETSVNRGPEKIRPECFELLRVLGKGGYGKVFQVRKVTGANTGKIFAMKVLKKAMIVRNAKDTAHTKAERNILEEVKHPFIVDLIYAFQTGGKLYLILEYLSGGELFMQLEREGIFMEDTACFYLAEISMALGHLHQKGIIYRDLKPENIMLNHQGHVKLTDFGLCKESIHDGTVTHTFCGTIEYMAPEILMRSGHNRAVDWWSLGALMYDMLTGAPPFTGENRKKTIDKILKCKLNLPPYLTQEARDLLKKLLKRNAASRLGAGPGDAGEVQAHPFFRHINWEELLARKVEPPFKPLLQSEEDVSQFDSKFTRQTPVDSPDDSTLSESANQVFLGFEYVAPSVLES

ERK2 = target: T4, ERK2 (Homo sapiens, UniProt P28482); test: Kinase panel screen (KinaseProfiler), ERK2; format: biochemical
T4 construct: purchased Upstate, Millipore Bioscience Division (KinaseProfiler service)
T4 sequence (P28482 whole entry): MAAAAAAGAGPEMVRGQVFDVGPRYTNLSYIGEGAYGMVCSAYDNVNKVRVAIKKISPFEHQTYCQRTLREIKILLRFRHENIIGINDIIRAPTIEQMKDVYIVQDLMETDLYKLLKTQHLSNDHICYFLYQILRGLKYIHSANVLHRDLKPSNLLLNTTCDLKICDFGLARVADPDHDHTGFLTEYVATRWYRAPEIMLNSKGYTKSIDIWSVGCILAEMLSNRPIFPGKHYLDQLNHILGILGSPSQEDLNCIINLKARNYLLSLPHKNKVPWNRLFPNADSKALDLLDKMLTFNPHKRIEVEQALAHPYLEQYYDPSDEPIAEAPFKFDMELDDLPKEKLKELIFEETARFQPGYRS
Method: (§1) Compounds of Formulae I and II were examined for activity against a selected panel of kinases using the KinaseProfiler™ enzyme profiling services (Upstate, Millipore Bioscience Division). Percent kinase activity at 10 μM and 1 μM test compound and 10 μM ATP was determined against 40 wild-type recombinant human kinases according to Upstate's standard protocol: ASK1, BTK, CSK, c-RAF, GCK, GSK3β, IKKα, IKKβ, IRAK1, IRAK4, JNK1α1, JNK2α2, JNK3, ERK1, ERK2, MAPKAP-K2, MAPKAP-K3, MEK1, MKK4, MKK6, MKK7β, Mnk2, MSK1, PAK3, PDK1, PRAK, ROCK1, Rsk2, SAPK2a, SAPK2b, SAPK3, SAPK4, SRPK1, SRPK2, Syk, TAK1, TBK1, PI3-Kβ, PI3-Kγ, PI3-Kδ.

ERK1 = target: T5, ERK1 (Homo sapiens, UniProt P27361); test: Kinase panel screen (KinaseProfiler), ERK1; format: biochemical
T5 construct: purchased Upstate, Millipore Bioscience Division (KinaseProfiler service)
T5 sequence (P27361 whole entry): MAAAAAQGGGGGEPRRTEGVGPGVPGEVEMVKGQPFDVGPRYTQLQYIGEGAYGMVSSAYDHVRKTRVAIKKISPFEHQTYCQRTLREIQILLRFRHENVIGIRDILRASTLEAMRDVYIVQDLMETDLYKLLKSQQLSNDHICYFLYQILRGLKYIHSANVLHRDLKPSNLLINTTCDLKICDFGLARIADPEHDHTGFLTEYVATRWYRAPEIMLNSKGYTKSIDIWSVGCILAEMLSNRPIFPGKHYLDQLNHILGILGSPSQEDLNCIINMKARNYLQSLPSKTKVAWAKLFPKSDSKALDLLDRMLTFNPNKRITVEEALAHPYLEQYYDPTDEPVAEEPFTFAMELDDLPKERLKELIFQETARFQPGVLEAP
Method: as §1

GCK = target: T6, GCK (Homo sapiens, UniProt Q12851); test: Kinase panel screen (KinaseProfiler), GCK; format: biochemical
T6 construct: purchased Upstate, Millipore Bioscience Division (KinaseProfiler service)
T6 sequence (Q12851 1-820): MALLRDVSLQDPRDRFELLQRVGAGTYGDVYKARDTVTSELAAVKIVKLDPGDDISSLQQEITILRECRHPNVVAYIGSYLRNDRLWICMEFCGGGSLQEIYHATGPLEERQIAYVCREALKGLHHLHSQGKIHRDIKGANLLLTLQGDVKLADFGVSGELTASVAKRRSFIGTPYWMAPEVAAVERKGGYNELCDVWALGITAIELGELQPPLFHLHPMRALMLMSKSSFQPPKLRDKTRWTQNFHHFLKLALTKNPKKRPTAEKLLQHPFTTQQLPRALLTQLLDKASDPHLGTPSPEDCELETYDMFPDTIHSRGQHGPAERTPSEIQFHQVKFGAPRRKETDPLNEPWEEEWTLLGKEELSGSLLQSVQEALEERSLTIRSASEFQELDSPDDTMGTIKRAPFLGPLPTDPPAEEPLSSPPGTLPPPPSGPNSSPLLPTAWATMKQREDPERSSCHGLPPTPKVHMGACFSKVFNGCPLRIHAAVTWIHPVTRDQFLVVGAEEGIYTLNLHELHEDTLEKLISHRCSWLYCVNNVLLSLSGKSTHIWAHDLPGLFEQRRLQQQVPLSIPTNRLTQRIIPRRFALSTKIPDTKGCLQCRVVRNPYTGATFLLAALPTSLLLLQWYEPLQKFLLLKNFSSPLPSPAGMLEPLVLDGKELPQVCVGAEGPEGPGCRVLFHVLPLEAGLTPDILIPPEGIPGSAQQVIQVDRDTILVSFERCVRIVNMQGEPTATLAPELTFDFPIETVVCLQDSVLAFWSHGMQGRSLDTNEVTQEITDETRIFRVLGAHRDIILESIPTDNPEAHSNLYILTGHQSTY
Method: as §1

Mnk2 = target: T7, Mnk2 (Homo sapiens, UniProt Q9HBH9); test: Kinase panel screen (KinaseProfiler), Mnk2; format: biochemical; conditions: 10 μM ATP
T7 construct: purchased Upstate, Millipore Bioscience Division (KinaseProfiler service)
T7 sequence (Q9HBH9 whole entry): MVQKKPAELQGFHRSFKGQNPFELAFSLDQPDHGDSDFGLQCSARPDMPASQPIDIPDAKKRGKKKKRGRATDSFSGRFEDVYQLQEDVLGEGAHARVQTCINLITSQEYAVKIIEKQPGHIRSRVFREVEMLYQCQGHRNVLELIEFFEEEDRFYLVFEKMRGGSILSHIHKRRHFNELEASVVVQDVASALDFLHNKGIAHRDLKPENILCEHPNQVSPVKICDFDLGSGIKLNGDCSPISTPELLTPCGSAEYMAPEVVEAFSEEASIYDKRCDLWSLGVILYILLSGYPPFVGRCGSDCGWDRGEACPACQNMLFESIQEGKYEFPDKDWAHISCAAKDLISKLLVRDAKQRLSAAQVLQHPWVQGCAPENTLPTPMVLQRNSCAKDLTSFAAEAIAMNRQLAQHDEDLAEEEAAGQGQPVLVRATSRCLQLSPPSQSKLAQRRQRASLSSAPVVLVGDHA
Method: as §1

Akt3 human enzyme = target: T8, Akt3 human enzyme (Homo sapiens, UniProt Q9Y243); test: Akt3 inhibition assay (IMAP FP); format: biochemical;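 note: kinase reaction run 60 min at room temperature after 30 µM ATP start, phosphorylated substrate captured on IMAP beads and read as fluorescence polarization (mP)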
T8 construct: purchased Upstate Chemicon 14-502
T8 sequence (Q9Y243 whole entry): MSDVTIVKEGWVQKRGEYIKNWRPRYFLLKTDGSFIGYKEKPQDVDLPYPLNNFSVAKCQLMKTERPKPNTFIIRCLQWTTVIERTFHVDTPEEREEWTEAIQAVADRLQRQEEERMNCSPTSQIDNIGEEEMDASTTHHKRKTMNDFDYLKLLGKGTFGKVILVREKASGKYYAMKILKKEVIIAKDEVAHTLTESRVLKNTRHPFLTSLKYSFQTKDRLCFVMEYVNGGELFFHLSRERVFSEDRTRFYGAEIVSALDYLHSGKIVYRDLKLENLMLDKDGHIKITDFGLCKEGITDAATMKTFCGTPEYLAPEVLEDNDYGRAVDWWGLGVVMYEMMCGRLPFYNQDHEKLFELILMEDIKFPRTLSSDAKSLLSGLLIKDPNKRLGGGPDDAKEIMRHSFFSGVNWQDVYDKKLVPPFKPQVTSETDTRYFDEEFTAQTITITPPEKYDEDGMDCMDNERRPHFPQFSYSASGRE

IRAK1 = target: T9, IRAK1 (Homo sapiens, UniProt P51617); test: Kinase panel screen (KinaseProfiler), IRAK1; format: biochemical; conditions: 10 μM ATP
T9 construct: purchased Upstate, Millipore Bioscience Division (KinaseProfiler service)
T9 sequence (P51617 whole entry): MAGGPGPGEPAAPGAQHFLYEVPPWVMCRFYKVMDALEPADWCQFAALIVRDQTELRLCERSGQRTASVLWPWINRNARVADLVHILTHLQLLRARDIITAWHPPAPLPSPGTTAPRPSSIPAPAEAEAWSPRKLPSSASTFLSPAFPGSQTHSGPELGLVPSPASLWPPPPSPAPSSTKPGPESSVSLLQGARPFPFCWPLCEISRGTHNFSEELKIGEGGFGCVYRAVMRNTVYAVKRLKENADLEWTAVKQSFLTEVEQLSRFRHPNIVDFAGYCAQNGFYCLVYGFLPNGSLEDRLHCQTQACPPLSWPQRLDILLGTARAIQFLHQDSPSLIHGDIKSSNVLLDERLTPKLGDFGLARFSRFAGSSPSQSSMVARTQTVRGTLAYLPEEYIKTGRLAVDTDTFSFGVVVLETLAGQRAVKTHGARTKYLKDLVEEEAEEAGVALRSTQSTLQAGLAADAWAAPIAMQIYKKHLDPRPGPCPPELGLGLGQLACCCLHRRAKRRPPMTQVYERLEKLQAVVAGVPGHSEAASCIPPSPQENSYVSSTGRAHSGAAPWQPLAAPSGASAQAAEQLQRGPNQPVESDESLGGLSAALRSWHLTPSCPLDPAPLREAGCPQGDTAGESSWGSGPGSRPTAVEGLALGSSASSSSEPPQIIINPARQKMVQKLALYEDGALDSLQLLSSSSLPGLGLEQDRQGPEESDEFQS
Method: as §1

[2] = 10 μM ATP, read-out: ROCK2 Ki, Avg

- IC50 (human neutrophils): 6760 nM
Structure (SMILES): C[C@@H](N)[C@H]1CC[C@H](C(=O)Nc2ccncc2)CC1 [Compound Y-27632, reference compound]
- log10AUC (Penh) ([1]; 30 μmol/kg/oral): 1.9942

Structure (SMILES): CS(=O)(=O)Nc1cccc(CN2CCCC(Nc3ccc4[nH]ncc4c3)C2)c1 (stereo not shown) [Compound 1.051, N-(3-((3-(1H-indazol-5-ylamino)piperidin-1-yl)methyl)phenyl)methanesulfonamide]
- Ki (ROCK1; Avg, 10 μM ATP): 37.2 nM
- Ki (ROCK2; [2]): 3.8 nM
- Cell score at 1 μM (NIH/3T3 cells): 2.5

Structure (SMILES): CSc1ccc(CN2CCCC(Nc3ccc4[nH]ncc4c3)C2)cc1 (stereo not shown) [Compound 1.008, N-(1-(4-(methylthio)benzyl)piperidin-3-yl)-1H-indazol-5-amine]
- Ki (ROCK1; Avg, 10 μM ATP): 30.5 nM
- Ki (ROCK2; [2]): 3.9 nM
- Cell score at 1 μM (NIH/3T3 cells): 2

Structure (SMILES): OCCOc1cccc(CN2CCCC(Nc3ccc4[nH]ncc4c3)C2)c1 (stereo not shown) [Compound 1.039, 2-(3-((3-(1H-indazol-5-ylamino)piperidin-1-yl)methyl)phenoxy)ethanol]
- Ki (ROCK1; Avg, 10 μM ATP): 209 nM
- Ki (ROCK2; [2]): 24.7 nM
- Cell score at 1 μM (NIH/3T3 cells): 2

Structure (SMILES): c1cc2cc(CN3CCCC(Nc4ccc5[nH]ncc5c4)C3)ccc2o1 (stereo not shown) [Compound 1.052, N-(1-(benzofuran-5-ylmethyl)piperidin-3-yl)-1H-indazol-5-amine]
- Cell score at 1 μM (NIH/3T3 cells): 2.8

Structure (SMILES): C#Cc1ccc(CN2CCCC(Nc3ccc4[nH]ncc4c3)C2)cc1 (stereo not shown) [Compound 1.034, N-(1-(4-ethynylbenzyl)piperidin-3-yl)-1H-indazol-5-amine]
- IC50 (human neutrophils): 5600 nM
- Ki (ROCK1; Avg, 10 μM ATP): 36 nM
- Ki (ROCK2; [2]): 5.3 nM
- Cell score at 1 μM (NIH/3T3 cells): 2

Structure (SMILES): Clc1ccc(CN2CCC(Nc3cccc4cnccc34)C2)cc1Cl (stereo not shown) [Compound 2.016, N-(1-(3,4-dichlorobenzyl)pyrrolidin-3-yl)isoquinolin-5-amine]
- Ki (ROCK1; Avg, 10 μM ATP): 101 nM
- Ki (ROCK2; [2]): 42.4 nM
- Cell score at 1 μM (NIH/3T3 cells): 1.8

Structure (SMILES): FC(F)(F)c1cccc(CN2CCC(Nc3cccc4cnccc34)C2)c1 (stereo not shown) [Compound 2.018, N-(1-(3-(trifluoromethyl)benzyl)pyrrolidin-3-yl)isoquinolin-5-amine]
- Cell score at 1 μM (NIH/3T3 cells): 1.8

Structure (SMILES): CS(=O)(=O)c1ccc(CN2CCC(Nc3ccc4[nH]ncc4c3)C2)cc1 (stereo not shown) [Compound 1.004, N-(1-(4-(methylsulfonyl)benzyl)pyrrolidin-3-yl)-1H-indazol-5-amine]
- Cell score at 1 μM (NIH/3T3 cells): 1.8

Structure (SMILES): CS(=O)(=O)Cc1cccc(CN2CCCC(Nc3ccc4[nH]ncc4c3)C2)c1 (stereo not shown) [Compound 1.041, N-(1-(3-(methylsulfonylmethyl)benzyl)piperidin-3-yl)-1H-indazol-5-amine]
- Cell score at 1 μM (NIH/3T3 cells): 2.5

Structure (SMILES): C[C@@H]1C[C@H]2[C@@H]3CCC4=CC(=O)C=C[C@]4(C)[C@@]3(F)[C@@H](O)C[C@]2(C)[C@@]1(O)C(=O)CO [Dexamethasone, dexamethasone, reference compound]
- log10AUC (Penh) ([1]; 1 mg/kg/oral): 2.0216

Structure (SMILES): Oc1cccc(CN2CCCC(Nc3ccc4[nH]ncc4c3)C2)c1 (stereo not shown) [Compound 1.046, 3-((3-(1H-indazol-5-ylamino)piperidin-1-yl)methyl)phenol]
- Cell score at 1 μM (NIH/3T3 cells): 2.5

Structure (SMILES): OCCn1ccc2cc(CN3CC[C@@H](Nc4cccc5cnccc45)C3)ccc21 [Compound 2.066, (R)-2-(5-((3-(isoquinolin-5-ylamino)pyrrolidin-1-yl)methyl)-1H-indol-1-yl)ethanol]
- Ki (p70S6K human enzyme; 30 μM ATP, Ki=IC50/(1+([ATP Challenge]/EC50 ATP)), read-out: p70S6K Ki, Avg): 368 nM
- Ki (p70S6K human enzyme; average Ki, read-out: p70S6K Ki): 368 nM
- ERK2 Percent inhibition, 1 μM (ERK2): 50%
- ERK2 Percent inhibition, 10 μM (ERK2): 12%
- inhibition at 1 µM (ERK2; 1 μM, read-out: ERK2 inhibited): ~50%
- activity at 1 µM (ERK1; 1 μM test compound, 10 μM ATP, read-out: ERK1 Percent inhibition, 1 μM): 52%
- inhibition at 1 µM (ERK1; 1 μM, read-out: ERK1 inhibited): ~50%
- activity at 10 µM (ERK1; 10 μM test compound, 10 μM ATP, read-out: ERK1 Percent inhibition, 10 μM): 15%
- GCK Percent inhibition, 1 μM (GCK): 39%
- activity at 10 µM (GCK; 10 μM test compound, 10 μM ATP, read-out: GCK Percent inhibition, 10 μM): 7%
- activity at 1 µM (Mnk2; 1 μM test compound, read-out: Mnk2 Percent inhibition, 1 μM): 99%
- activity at 10 µM (Mnk2; 10 μM test compound, read-out: Mnk2 Percent inhibition, 10 μM): 54%
- log10AUC (Penh) ([1]; 0.5 μmol/kg/intratracheal): 2.0248
- airway hyperreactivity ([1]; intratracheal once a day during days 27 to 31): prevention of airway hyperreactivity
- Ki (Akt3 human enzyme; 30 μM ATP, Ki=IC50/(1+([ATP Challenge]/EC50 ATP)), read-out: Akt3 Ki, Avg): 2510 nM
- Ki (Akt3 human enzyme; average Ki, read-out: Akt3 Ki): 2510 nM
- Ki (ROCK1; Avg, 10 μM ATP): 10.2 nM
- Ki (ROCK1; average Ki): 10.2 nM
- Ki (ROCK2; [2]): 2.3 nM
- Ki (ROCK2; average Ki, read-out: ROCK2 Ki): 2.3 nM
- activity at 1 µM (IRAK1; 1 μM test compound, read-out: IRAK1 Percent inhibition, 1 μM): 74%
- activity at 10 µM (IRAK1; 10 μM test compound, read-out: IRAK1 Percent inhibition, 10 μM): 32%
